PMC2497451 (Anesthesia and analgesia, 2008)

Biological target: T1, adult human muscle nicotinic acetylcholine receptor (nAChR, α2βεδ) (Homo sapiens, UniProt P02708+Q04844+Q07001)
Test: cell-based
Conditions: not given

T1 sequence (P02708 21-457): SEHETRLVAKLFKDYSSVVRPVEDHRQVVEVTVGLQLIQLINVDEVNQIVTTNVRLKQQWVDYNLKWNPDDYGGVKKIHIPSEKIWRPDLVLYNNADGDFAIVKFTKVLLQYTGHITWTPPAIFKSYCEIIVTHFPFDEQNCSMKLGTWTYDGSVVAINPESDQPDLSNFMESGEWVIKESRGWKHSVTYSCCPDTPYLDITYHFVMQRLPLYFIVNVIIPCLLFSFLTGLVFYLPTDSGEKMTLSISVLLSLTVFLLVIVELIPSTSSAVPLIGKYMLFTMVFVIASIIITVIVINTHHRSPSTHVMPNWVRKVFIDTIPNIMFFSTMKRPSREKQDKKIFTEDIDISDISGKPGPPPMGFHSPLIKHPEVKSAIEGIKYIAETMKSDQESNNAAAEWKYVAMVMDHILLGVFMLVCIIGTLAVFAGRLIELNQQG
T1 sequence (Q04844 21-493): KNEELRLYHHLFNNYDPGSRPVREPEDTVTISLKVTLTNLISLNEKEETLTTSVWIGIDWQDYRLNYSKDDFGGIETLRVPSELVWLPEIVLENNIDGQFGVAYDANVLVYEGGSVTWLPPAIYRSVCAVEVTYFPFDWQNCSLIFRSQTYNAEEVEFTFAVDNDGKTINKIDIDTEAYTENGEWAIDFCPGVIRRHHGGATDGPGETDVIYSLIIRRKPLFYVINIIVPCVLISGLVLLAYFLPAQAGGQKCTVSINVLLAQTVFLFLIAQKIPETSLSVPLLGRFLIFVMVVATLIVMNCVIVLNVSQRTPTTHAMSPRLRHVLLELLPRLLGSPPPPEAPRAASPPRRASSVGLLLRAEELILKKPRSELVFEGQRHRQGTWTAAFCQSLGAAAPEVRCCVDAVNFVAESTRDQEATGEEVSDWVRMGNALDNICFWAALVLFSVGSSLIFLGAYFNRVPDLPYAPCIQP
T1 sequence (Q07001 22-517): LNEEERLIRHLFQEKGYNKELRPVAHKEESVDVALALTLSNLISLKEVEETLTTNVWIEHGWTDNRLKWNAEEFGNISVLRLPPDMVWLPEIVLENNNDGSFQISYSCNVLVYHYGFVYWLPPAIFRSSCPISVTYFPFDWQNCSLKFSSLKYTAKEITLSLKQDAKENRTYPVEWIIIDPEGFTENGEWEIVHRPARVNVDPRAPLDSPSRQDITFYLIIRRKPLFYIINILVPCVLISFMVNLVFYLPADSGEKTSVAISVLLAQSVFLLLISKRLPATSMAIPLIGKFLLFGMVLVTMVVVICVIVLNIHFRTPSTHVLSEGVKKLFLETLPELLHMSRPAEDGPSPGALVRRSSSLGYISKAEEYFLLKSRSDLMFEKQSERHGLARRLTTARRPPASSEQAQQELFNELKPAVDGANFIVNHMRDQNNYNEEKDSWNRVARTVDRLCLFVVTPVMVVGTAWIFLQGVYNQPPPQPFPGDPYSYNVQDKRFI
T1 sequence (P11230 24-501 partner): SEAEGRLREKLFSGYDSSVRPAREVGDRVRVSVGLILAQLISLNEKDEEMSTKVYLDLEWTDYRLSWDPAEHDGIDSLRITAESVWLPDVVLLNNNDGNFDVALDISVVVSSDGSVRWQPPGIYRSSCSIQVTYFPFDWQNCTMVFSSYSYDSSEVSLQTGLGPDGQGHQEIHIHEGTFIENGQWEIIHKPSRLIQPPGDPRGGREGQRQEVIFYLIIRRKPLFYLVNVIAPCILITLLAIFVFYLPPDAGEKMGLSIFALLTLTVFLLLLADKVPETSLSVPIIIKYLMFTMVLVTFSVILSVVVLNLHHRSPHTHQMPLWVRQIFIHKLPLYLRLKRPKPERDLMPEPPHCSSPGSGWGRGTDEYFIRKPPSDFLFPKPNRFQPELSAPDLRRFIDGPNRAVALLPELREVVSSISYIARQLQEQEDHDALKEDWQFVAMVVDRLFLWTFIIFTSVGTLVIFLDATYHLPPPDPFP

Compared with `CC(=O)O[C@H]1C[C@@H]2CC[C@@H]3[C@H](CC[C@@]4(C)[C@H]3C[C@H]([N+]3(C)CCCCC3)[C@@H]4OC(C)=O)[C@@]2(C)C[C@@H]1[N+]1(C)CCCCC1` [pancuronium], `COc1ccc(C[C@@H]2c3cc(OC)c(OC)cc3CC[N@+]2(C)CCC(=O)OCCCCCOC(=O)CC[N@@+]2(C)CCc3cc(OC)c(OC)cc3[C@H]2Cc2ccc(OC)c(OC)c2)cc1OC` [cisatracurium] is 1.6-fold higher in IC50: 0.0063 ± 0.0008 µM for the first, 0.01 ± 0.001 µM for the second.

`COc1cc2c3cc1Oc1cc(ccc1O)C[C@@H]1c4c(cc(OC)c(O)c4Oc4ccc(cc4)C[C@@H]3N(C)CC2)CC[N+]1(C)C` [(+)-tubocurarine] showed an IC50 of 0.024 ± 0.002 µM.

Biological target: T1, adult human muscle nicotinic acetylcholine receptor (nAChR, α2βεδ)
Test: not given
Conditions: 300 μM ACh, -50 mV, pH 7.3, room temperature; competitive

`COc1ccc2cc1Oc1cc3c(cc1OC)CC[N+](C)(C)[C@H]3Cc1ccc(cc1)Oc1c(OC)c(OC)cc3c1[C@@H](C2)[N+](C)(C)CC3` [metocurine] and `COc1ccc(CC2c3cc(OC)c(OC)cc3CC[N+]2(C)CCC(=O)OCCCCCOC(=O)CC[N+]2(C)CCc3cc(OC)c(OC)cc3C2Cc2ccc(OC)c(OC)c2)cc1OC` (stereo not shown) [atracurium] are within error of each other in IC50: 0.018 ± 0.002 µM for the first, 0.017 ± 0.002 µM for the second.

`CC(=O)O[C@H]1C[C@@H]2CC[C@@H]3[C@H](CC[C@@]4(C)[C@H]3C[C@H]([N+]3(C)CCCCC3)[C@@H]4OC(C)=O)[C@@]2(C)C[C@@H]1N1CCCCC1` [vecuronium] and `C=CC[N+]1([C@H]2C[C@H]3[C@@H]4CC[C@H]5C[C@H](O)[C@@H](N6CCOCC6)C[C@]5(C)[C@H]4CC[C@]3(C)[C@H]2OC(C)=O)CCCC1` [rocuronium] are within error of each other in IC50: 0.015 ± 0.002 µM for the first, 0.017 ± 0.002 µM for the second.
